Measurements as given in the supplement of paper PMC11451515.

System: SEM cells
Assay: cell viability relative to DMSO control; higher = less cytotoxic
Conditions: 48 h
Procedure, shortened: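 Viability is a per-plate percentage relative to DMSO wells, with cell-free wells as background. CellTiter-Glo One luminescence was read after 48 h at 37°C on 1536-well plates (5 μl) of NOMO1 or SEM (500 cells/well) or P12-Ichikawa (1000 cells/well) leukemia cells. The cells had been adapted for at least four passages in each medium and pin-dosed with library compounds in DMSO from 47 μM to 0.79 nM in 11 threefold steps.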

[1] = HPLM + 10% dialyzed FBS, 0.000781 µM
[2] = HPLM + 10% dialyzed FBS, 0.00234 µM
[3] = HPLM + 10% dialyzed FBS, 0.00702 µM
[4] = HPLM + 10% dialyzed FBS, 0.0211 µM
[5] = HPLM + 10% dialyzed FBS, 0.0632 µM
[6] = HPLM + 10% dialyzed FBS, 0.19 µM
[7] = HPLM + 10% dialyzed FBS, 0.569 µM
[8] = HPLM + 10% dialyzed FBS, 1.71 µM
[9] = HPLM + 10% dialyzed FBS, 5.12 µM
[10] = HPLM + 10% dialyzed FBS, 15.4 µM
[11] = HPLM + 10% dialyzed FBS, 46.1 µM
[12] = RPMI 5 mM glucose + 10% dialyzed FBS, 0.000781 µM
[13] = RPMI 5 mM glucose + 10% dialyzed FBS, 0.00234 µM
[14] = RPMI 5 mM glucose + 10% dialyzed FBS, 0.00702 µM
[15] = RPMI 5 mM glucose + 10% dialyzed FBS, 0.0211 µM
[16] = RPMI 5 mM glucose + 10% dialyzed FBS, 0.0632 µM
[17] = RPMI 5 mM glucose + 10% dialyzed FBS, 0.19 µM
[18] = RPMI 5 mM glucose + 10% dialyzed FBS, 0.569 µM
[19] = RPMI 5 mM glucose + 10% dialyzed FBS, 1.71 µM
[20] = RPMI 5 mM glucose + 10% dialyzed FBS, 5.12 µM
[21] = RPMI 5 mM glucose + 10% dialyzed FBS, 15.4 µM
[22] = RPMI 5 mM glucose + 10% dialyzed FBS, 46.1 µM
[23] = RPMI 5 mM glucose + 10% FBS, 0.000781 µM
[24] = RPMI 5 mM glucose + 10% FBS, 0.00234 µM
[25] = RPMI 5 mM glucose + 10% FBS, 0.00702 µM
[26] = RPMI 5 mM glucose + 10% FBS, 0.0211 µM
[27] = RPMI 5 mM glucose + 10% FBS, 0.0632 µM
[28] = RPMI 5 mM glucose + 10% FBS, 0.19 µM
[29] = RPMI 5 mM glucose + 10% FBS, 0.569 µM
[30] = RPMI 5 mM glucose + 10% FBS, 1.71 µM
[31] = RPMI 5 mM glucose + 10% FBS, 5.12 µM
[32] = RPMI 5 mM glucose + 10% FBS, 15.4 µM
[33] = RPMI 5 mM glucose + 10% FBS, 46.1 µM

Row | Compound | cell viability [1] [%] | cell viability [2] [%] | cell viability [3] [%] | cell viability [4] [%] | cell viability [5] [%] | cell viability [6] [%] | cell viability [7] [%] | cell viability [8] [%] | cell viability [9] [%] | cell viability [10] [%] | cell viability [11] [%] | cell viability [12] [%] | cell viability [13] [%] | cell viability [14] [%] | cell viability [15] [%] | cell viability [16] [%] | cell viability [17] [%] | cell viability [18] [%] | cell viability [19] [%] | cell viability [20] [%] | cell viability [21] [%] | cell viability [22] [%] | cell viability [23] [%] | cell viability [24] [%] | cell viability [25] [%] | cell viability [26] [%] | cell viability [27] [%] | cell viability [28] [%] | cell viability [29] [%] | cell viability [30] [%] | cell viability [31] [%] | cell viability [32] [%] | cell viability [33] [%]
1 | CC(C)c1ccccc1Cc1cc(C(=O)Nc2ccc([S+](=O)([O-])c3ccccc3C(C)(C)C)cc2)c(O)c(O)c1O | 104 | 127 | 116 | 106 | 113 | 101 | 109 | 115 | 68.6 | 94.2 | 94.6 | 129 | 118 | 120 | 105 | 120 | 112 | 138 | 123 | 32.7 | 69.8 | 92.1 |  |  |  |  |  |  |  |  |  |  | 
2 | O=C(CCCCCCC(=O)Nc1ccccc1)NO | 77.1 | 112 | 102 | 103 | 124 | 116 | 108 | 108 | 18.8 | 7.11 | 5.17 | 62.6 | 100 | 106 | 109 | 114 | 106 | 121 | 103 | 16.4 | 6.03 | 4.79 | 94.2 | 116 | 135 | 123 | 111 | 118 | 125 | 127 | 25 | 6.63 | 5.85
3 | OCCCNc1cc(-c2ccnc(Nc3cccc(Cl)c3)n2)ccn1 | 86.3 | 99.5 | 110 | 108 | 121 | 45.7 | 10.1 | 8.28 | 6.56 | 5.81 | 3.56 | 96.2 | 105 | 114 | 113 | 122 | 62.1 | 10.9 | 5.73 | 6.76 | 5.91 | 3.62 | 103 | 125 | 125 | 123 | 143 | 88.2 | 10.4 | 5.66 | 6.14 | 5.72 | 3.94
4 | CN1C(=O)/C=C(/NCCN(CCO)CCCC2=CC=C(C=C2)[N+]([O-])=O)N(C)C1=O | 104 | 113 | 121 | 114 | 108 | 136 | 121 | 119 | 120 | 108 | 66.6 | 103 | 123 | 135 | 111 | 144 | 138 | 136 | 137 | 121 | 107 | 50.8 | 112 | 111 | 131 | 118 | 109 | 138 | 133 | 123 | 95.2 | 105 | 55
5 | COC[C@H]1OC(=O)C2=COC3=C2[C@@]1(C)\C4=C(\[C@@H]5CC[C@H](O)[C@@]5(C)C[C@H]4OC(C)=O)C3=O | 95.1 | 117 | 48.9 | 114 | 113 | 113 | 117 | 111 | 102 | 98.6 | 54.7 | 101 | 99 | 45.8 | 98.4 | 115 | 108 | 104 | 105 | 84.7 | 68.2 | 30.8 | 60.9 | 67.4 | 15.9 | 71.7 | 77.7 | 84.9 | 67.9 | 77.3 | 55.9 | 53.2 | 33.7
6 | COc1cc(N[S+](=O)([O-])c2ccc(N)cc2)nc(OC)n1 | 71.9 | 78.4 | 85.6 | 83 | 86.4 | 85.5 | 81.7 | 82.6 | 76.5 | 74.6 | 66.4 | 92.8 | 91.3 | 99.7 | 98.8 | 118 | 101 | 92.7 | 95.3 | 98.9 | 101 | 101 | 76.1 | 102 | 90.6 | 83.4 | 102 | 108 | 108 | 96.9 | 84.5 | 111 | 106
7 | Nc1nc(OCc2ccccc2)c2nc[nH]c2n1 | 99.9 | 107 | 114 | 112 | 112 | 124 | 114 | 115 | 115 | 105 | 127 | 90.2 | 102 | 109 | 103 | 104 | 112 | 98.6 | 86.6 | 94.5 | 76.1 | 103 | 82 | 101 | 84.5 | 92.3 | 103 | 97.5 | 89.4 | 78.4 | 93.8 | 76.7 | 88.9
8 | Cc1[nH]c(/C=C2\C(=O)Nc3ccc([S+](=O)([O-])Cc4c(Cl)cccc4Cl)cc32)c(C)c1C(=O)N1CCC[C@@H]1CN1CCCC1 | 100 | 103 | 102 | 103 | 112 | 96.6 | 94.8 | 76.5 | 6.42 | 45.4 | 9.75 | 84.9 | 99.4 | 85.3 | 94.2 | 86.8 | 93.2 | 92.4 | 72.5 | 42 | 42.3 | 26.7 | 116 | 114 | 107 | 116 | 111 | 118 | 109 | 101 | 25.7 | 56.7 | 34
